Values of other authors in patent publication US8802148B2, “Microparticles and method for their production” (Alrise Biosystems GmbH, priority 2002, dated 2014).
Structures can show the parent of a compound that is named as a salt.

Settings: at 20-25° C.

Row | Structure (SMILES) | Solubility in water (w/w) [%]
1 | CCOC(C)=O [ethyl acetate] | 7.43
2 | CCOC=O [ethyl formate] | 8.4
3 | CCCOC=O [propyl formate] | 2.82
4 | CCCOC(C)=O [propyl acetate] | 1.67
5 | CC(=O)OC(C)C [iIsopropyl acetate, isopropyl acetate] | 3.09
6 | COC(C)=O [methyl acetate] | 22.8
